Measured values: PMC4254627 (Bioorganic & medicinal chemistry letters, 2014)
“Also recorded” adds a separate entry of the source.

Assays:
Stability = assay type: in vitro ADME, human; conditions: 50% HP vs pH 7.4 buffer
[1] = Solubility / precipitation behaviour in pH 7.4 buffer; assay type: physicochemical

SMILES	reduction of half-life in HP compared to pH 7.4 PBS buffer (Stability)	solubility in pH 7.4 buffer [1]
NCCC(=O)O[C@@H]1CC[C@@]2(O)[C@H]3Cc4ccc(O)c5c4[C@@]2(CCN3CC2CC2)[C@H]1O5 [Prodrug 6e]	approximately 5.4 fold	–
CC(C)[C@H](N)C(=O)O[C@@H]1CC[C@@]2(O)[C@H]3Cc4ccc(O)c5c4[C@@]2(CCN3CC2CC2)[C@H]1O5 [Prodrug 6b]	–	precipitate
CCC(C)[C@H](N)C(=O)O[C@@H]1CC[C@@]2(O)[C@H]3Cc4ccc(O)c5c4[C@@]2(CCN3CC2CC2)[C@H]1O5 (stereo partly drawn) [Prodrug 6d]	–	highly insoluble; also recorded: precipitate
